The record followed here is US10765690B2, “TLR4 agonists and compositions thereof and their use in the treatment of cancer” (GlaxoSmithKline Intellectual Property Development Limited, priority 2015, dated 2020).

Structures are written as SMILES.

The test system of assay [1] is CT-26 colorectal tumor cells. Briefly: CT-26 syngeneic colon carcinoma model, escalating i.p. doses (Example 9). In kind it is in vivo, Balb/c mice. The settings on record: CRX-527 4, 20, 100 ug per mouse i.p. biweekly. The source says: The CT26 mouse colon carcinoma (CT26.WT; ATCC #CRL-2638) cell line was obtained from ATCC. It is an N-nitroso-N-methylurethane-(NNMU) induced, undifferentiated colon carcinoma cell line known in the art. For example, it is described in: Wang M, et al. Active immunotherapy of cancer with a nonreplicating recombinant fowlpox virus encoding a model tumor-associated antigen. J. Immunol. 154: 4685-4692, 1995 (PubMed: 7722321), which is incorporated by reference in its entirety herein. For preparation of tumor cells, A frozen (−140° C.) vial of CT-26 (mouse colon carcinoma cells), from ATCC (cat # CRL-2638, lot #59227052) are thawed and cultured in basic RPMI (with 10% FBS) media over the following week.
CT-26 cells (passage 12) are harvested from the flask in complete medium. Cells are centrifuged and resuspended in RPMI (without FBS), this step is repeated 3 times. Cell density and viability are checked via trypan blue exclusion. Cells are then diluted to desired density (5×10^5 cells per mL) and kept on ice.
Escalating doses of CRX 527 are evaluated for their efficacy in reducing tumor growth. Animals are weighed and innoculated on the right hind quarter with 0.5×10^5 CT26 tumor cells per mouse on Day 0. A total of 130 mice are inoculated with tumor cells—assuming 30% failure rate (either too big or too small at time of start of study), the goal is to have n=10 for each group. After tumor cell innoculation, tumor growth and total body weight are measured 3 times a week for the duration of the study. Randomization occurs on day 10 or 11 when the average tumor volume is approximately 100 mm^3. Begining on the day of randomization, animals are dosed with CRX 527 or vehicle i.p. biweekly, for a total of 6 doses. Mice remain on study until tumors reach >2000 cu mm for two consecutive measurements, they are removed from study for other reasons (i.e. weight loss >20%, ulceration on tumor, etc.) or until the end of the study. After euthanization the tumors may be removed and subject to dissociation for flow analysis and/or FFPE for IHC analysis.
The above protocol was used to generate the results in FIG. 17 at the dosages indicated. In almost every case, Balb/c mice that were inoculated with 0.5×10^5 CT-26 colorectal tumor cells on the right hind quarter developed tumors that, when treated i.p. with vehicle (2% glycerol) only, and progressed as expected. […] FIG. 17.

In assay [2] the test system is Mouse Ovarian Tumor (MOT) cells. Briefly: Mouse Ovarian Tumor (MOT) model, survival, wild-type TLR4 mice. In kind it is in vivo, C3H/FeJ, C3H/HeOuJ, C3H/HeN mice.
The test system of assay [3] is L1210 murine leukemia cells. Briefly: L1210 murine leukemia model, survival of tumor-bearing mice. It counts as in vivo, BDF1 mice. The settings on record: mitomycin C 40 ug IP day 6 followed by CRX-527-AF 100 ug IP day 7; compared to either component alone; through day 54. As for the experimental part:
To investigate whether a combination treatment consisting of the chemotherapeutic mitomycin C and the AGP CRX-527 would prolong survival of cancer-bearing mice better than either treatment alone, BDF1 mice (10 per group) that had been seeded with L1210 murine leukemia cells (10^4 tumor cells via the intraperitoneal (IP) route) on day 0 were treated with, 1) nothing (untreated control), 2) an intraperitoneal injection of mitomycin C (40 ug) on day 6, 3) an IP injection of CRX-527-AF (100 ug CRX-527 in Aqueous Formulation (AF), which is 0.02% dipalmitoyl phosphatidyl choline in water) on day 7, or 4) an IP injection of mitomycin C on day 6 followed by an IP injection of CRX-527-AF on day 7. Survival curves through day 54 are presented for each group in FIG. 1.

Assay [4] concerns Mouse Ovarian Tumor (MOT) cells. In words: MOT model in TLR4 mutant (non-responder) mice, survival. It counts as in vivo. The note with it: MOT-bearing C3H/HeJ TLR4 mutant mice.
Another assay deals with 4T1 tumor cells. Briefly: 4T1 murine breast cancer model, survival after removal of primary tumor. The note with it: cyclophosphamide 3 mg IP and CRX-527 various doses IV on day 15; vs vehicle or cyclophosphamide alone. It counts as in vivo, BALB/c Mice. As for the experimental part:
The benefit of combining chemotherapeutic agents with TLR4 ligands such as AGPs was also confirmed in the 4T1 murine breast cancer model. For the experiments conducted using this metastatic cancer model, 4T1 tumor cells (7×10^3 in 50 uL) were injected into the lower mammary gland of each mouse on day 0. The primary tumors were surgically removed on day 14, the mice (10 per group) were treated on day 15 with vehicles, cyclophosphamide (3 mg IP) or cyclophosphamide (3 mg IP) and CRX-527 (various doses IV).

In assay [5] the test system is Mouse Ovarian Tumor (MOT) cells. Briefly: Mouse Ovarian Tumor (MOT) model, survival, wild-type TLR4 mice. It counts as in vivo, C3H/FeJ, C3H/HeOuJ, C3H/HeN mice. The note with it: for protection (survival): 1 and 10 ug doses IP day 7 after mitomycin C day 6. As for the experimental part:
To determine whether the timing of administration of the chemotherapeutic and TLR4 ligand is important for the anti-cancer response, C3H/FeJ mice (10 per group) seeded with Mouse Ovarian Tumor (MOT) cells (10^4 tumor cells via the IP route) on day 0 were treated with, 1) nothing (untreated control), 2) mitomycin C (40 ug) on day 6, 3) CRX-527-SE (10 ug in a Stable Emulsion formulation containing 2% squalene oil-in-water) on day 4 followed by mitomycin C on day 6, 4) CRX-527-SE on day 5 followed by mitomycin C on day 6, 5) both CRX-527-SE and mitomycin C on day 6, 6) mitomycin C on day 6 followed by CRX-527-SE on day 7, 7) mitomycin C on day 6 followed by CRX-527-SE on day 10, and 8) mitomycin C on day 6 followed by CRX-527-SE on day 11. The dose/route for mitomycin C and CRX-527-SE administration was always 40 ug IP and 10 ug IP, respectively.
The effect of formulation for the anti-cancer activity observed with CRX-527 was evaluated in the MOT tumor model. In the experiment shown in FIG. 5, C3H/HeN mice (wild-type TLR4, 10 per group) were seeded with MOT tumor (10^4 tumor cells IP) on day 0. Mitomycin C (40 ug IP) was administered on day 6, and 1 or 10 ug CRX-527 formulated in AF (Aqueous Formulation=0.02% dipalmitoyl phosphatidyl choline in water), IN (Intranasal Formulation=2% glycerol in water) or SE (Stable Emulsion=2% squalene oil-in-water) was administered via the IP route on day 7. […] The results of this experiment indicate that the potency of CRX-527 in this model can be enhanced through formulation.
Group size was 10 in this experiment. […]

Assay [6] deals with B16-F10 melanoma cells. In words: B16-F10 melanoma lung metastasis, lung tumor burden. In kind it is in vivo, BDF1 mice. The settings on record: CRX-527-SE 10 ug IV and cyclophosphamide 4 mg IP on day 1. The protocol:
In further experimentation, B16-F10 melanoma cells transfected with green fluorescent protein were used to quantify metastasis of the tumor to the lungs of mice. Because green fluorescent protein allows quantification of the amount of tumor in the lungs of B16-F10-bearing mice, it was possible to evaluate the efficacy of various treatment regimens using lung tumor burden as the read-out. BDF1 mice were seeded with B16-F10 melanoma cells (1.5×10^3 IV) on day 0. […] On day 26, the mice were sacrificed and their lungs were collected. The lungs from each mouse were photographed and then homogenized so that the luciferase activity could be quantified to determine how much B16-F10 tumor was present. […] This observation was confirmed when the lungs were homogenized and evaluated for luciferase activity.

The test system of assay [7] is B16-F10 melanoma cells. In words: B16-F10 murine melanoma model, survival. It counts as in vivo, BDF1 mice. The note with it: cyclophosphamide alone 3 mg IP on day 5. The protocol:
The efficacy of combination therapy with a chemotherapeutic agent and an AGP was also tested in a murine melanoma model using a non-immunogenic tumor called B16-F10. In these experiments, BDF1 mice were seeded with B16-F10 melanoma cells (1.5×10^3 IV) on day 0. At various time thereafter, cancer-bearing mice were treated with cyclophosphamide (aka Cytoxan) alone (3 mg IP), CRX-527-IN (10 ug) alone or a combination of the two agents.

Consider `CCCCCCCCCCC[C@H](CC(=O)N[C@H]1[C@H](OC[C@H](NC(=O)C[C@@H](CCCCCCCCCCC)OC(=O)CCCCCCCCC)C(=O)O)O[C@H](CO)[C@@H](OP(=O)(O)O)[C@@H]1OC(=O)C[C@@H](CCCCCCCCCCC)OC(=O)CCCCCCCCC)OC(=O)CCCCCCCCC` [CRX-527], for which, in assay [1], the survivability entry is recorded as “Dose dependence was also seen”. The tumor growth entry in assay [1] (6 doses, compared to vehicle (2% glycerol)) is given as “inhibited tumor growth in a dose dependent manner”. The survival result in assay [2] (C3H/HeOuJ wild-type mice, alone or in combination with mitomycin C) is given as “promoted survival”; in assay [3], “significantly prolonged survival”; in assay [4] it was “did not promote survival”; in assay [5] (C3H/HeN mice, CRX-527 1 or 10 ug IP day 7, one day after mitomycin C 40 ug IP), “prolonged survival”; in assay [5] (both mitomycin C and CRX-527, compared to either component alone), “significantly prolonged survival”. For the same compound, in assay [2] (mice cured of MOT tumor by combination treatment with mitomycin C and CRX-527, compared to naive control mice), the “resistance to re-challenge with the same tumor” value was “resistant to re-challenge”. The survival times entry in the assay on 4T1 tumor cells is “longer survival times”; in assay [5] (C3H/FeJ mice, CRX-527-SE 10 ug IP at the same time as or up to 5 days after mitomycin C 40 ug IP (day 6), vs untreated, mitomycin alone or CRX527-SE followed by mitomycin C), “significantly prolonged survival times”. Further, the “dose required to induce a high level of protection” value in assay [5] (AF formulation (0.02% dipalmitoyl phosphatidyl choline in water), IP day 7 after mitomycin C day 6) turned out to be 10 µg. Also, the “potency compared to the AF formulation” value in assay [5] (IN formulation (2% glycerol in water), IP day 7 after mitomycin C day 6) was “enhanced potency”; in assay [5] (SE formulation (2% squalene oil-in-water), IP day 7 after mitomycin C day 6) it was “enhanced potency”. Further, the “protection (survival)” value in assay [5] (IN formulation) and in assay [5] (SE formulation) was “highly effective” throughout. In addition, in the assay on B16-F10 melanoma cells [6] (day 26, vs vehicle or either agent alone), the “luciferase activity in homogenized lungs” value is on record as “significantly less luciferase activity”. Further, the “lung tumor burden by visual examination” value in the assay with B16-F10 melanoma cells [6] (lungs collected day 26) was “lower lung tumor burden than any other group”.
In the case of `O.O=P1(N(CCCl)CCCl)NCCCO1` (stereo not shown) [cyclophosphamide, 2-[bis(2-chloroethyl)amino]tetrahydro-2H-1,3,2-oxazaphosphorine 2-oxide monohydrate], the survival entry with B16-F10 melanoma cells [7] was “modest prolongation”.
As for `CO[C@@]12[C@H](COC(N)=O)C3=C(C(=O)C(C)=C(N)C3=O)N1C[C@@H]1N[C@@H]12` [mitomycin C, reference compound], in assay [5] (C3H/HeN mice, mitomycin C alone 40 ug IP day 6, compared to no treatment control), the survival result is given as “small increase in survival”.
